According to PubChem BioAssay (NCI):
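Each compound was tested at five concentrations against cells in 96-well plates for 48 hours. Abbreviation: GI50, concentration required for 50% inhibition of growth. TGI: concentration producing complete growth inhibition.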

Assays:
Assay in all cases: NCI anticancer screen, dose series, 48 h
[1] = test system: A498 renal
[2] = test system: A549 NSCLC
[3] = test system: HL-60(TB) leukemia
[4] = test system: HOP-62 NSCLC
[5] = test system: HOP-92 NSCLC
[6] = test system: IGROV1 ovarian
[7] = test system: NCI-H23 lung
[8] = test system: OVCAR-3 ovarian
[9] = test system: SF-539 CNS
[10] = test system: SNB-75 CNS
[11] = test system: SW-620 colon
[12] = test system: SK-MEL-2 melanoma
[13] = test system: MALME-3M melanoma
[14] = test system: NCI-H522 lung

SMILES | TGI [1] | TGI [2] | TGI [3] | TGI [4] | TGI [5] | TGI [6] | TGI [7] | TGI [8] | TGI [9] | TGI [10] | TGI [11] | TGI [12] | TGI [13] | TGI [14] | GI50 [7]
c1cc(-c2csc(-c3ccsc3)c2)cs1 | > 100 µM | > 100 µM | > 100 µM | > 100 µM | > 100 µM | > 100 µM | > 100 µM | > 100 µM | > 100 µM | > 100 µM | > 100 µM | – | – | – | –
Cc1c(/C=N/NC(=S)Nc2cccc(Cl)c2)c(=O)n(-c2ccccc2)n1C | 19.9 µM | – | > 100 µM | 26.9 µM | 31.7 µM | 42.4 µM | 82.3 µM | – | 33 µM | 28.3 µM | > 100 µM | 36.7 µM | – | – | –
CNC(C)Cc1ccccc1O (stereo not drawn) | > 100 µM | > 100 µM | > 100 µM | > 100 µM | > 100 µM | > 100 µM | > 100 µM | > 100 µM | > 100 µM | > 100 µM | > 100 µM | > 100 µM | > 100 µM | > 100 µM | –
Nc1nc(N)c(C2=CCN(Cc3ccccc3)CC2)c(=O)[nH]1 | > 100 µM | > 100 µM | > 100 µM | > 100 µM | > 100 µM | > 100 µM | > 100 µM | > 100 µM | > 100 µM | > 100 µM | > 100 µM | > 100 µM | > 100 µM | > 100 µM | –
Oc1ccc(Cl)cc1-c1[nH]c(=S)nc(-c2ccccc2)c1Cl | > 100 µM | > 100 µM | > 100 µM | > 84.9 µM | > 100 µM | > 100 µM | > 100 µM | > 100 µM | – | 70.1 µM | > 100 µM | > 100 µM | > 100 µM | > 31.6 µM | –
COc1ccc(N)c(C(O)CCNC(C)=O)c1 (stereo not drawn) | > 100 µM | > 100 µM | > 100 µM | – | > 100 µM | > 100 µM | > 100 µM | > 100 µM | > 100 µM | > 100 µM | > 100 µM | > 100 µM | – | > 100 µM | –
CCCCCCCC(=O)OC[C@@H](C[As](=O)(O)O)OC(=O)CCCCCCC | 24 µM | 19.3 µM | 21.7 µM | 32.9 µM | 37.6 µM | 16.4 µM | 26.4 µM | – | 22.3 µM | 29.5 µM | 25.9 µM | – | 28.5 µM | 4.83 µM | –
OC(CC(CC(O)(C(F)(F)Cl)C(F)(F)Cl)=NNc1ccccc1)(C(F)(F)Cl)C(F)(F)Cl | 6.72 µM | > 10 µM | > 10 µM | 7.95 µM | 5.19 µM | > 10 µM | 7.31 µM | 6.38 µM | 8.75 µM | 7.69 µM | > 10 µM | 3.56 µM | 7.14 µM | > 10 µM | –
O=S1(=O)NNC(=NCc2ccc(Cl)c(Cl)c2)c2ccccc21 | > 100 µM | > 100 µM | > 100 µM | – | > 100 µM | > 100 µM | – | > 100 µM | > 100 µM | – | > 100 µM | > 100 µM | > 100 µM | – | –
CC1(C)CC(=O)/C(=C/C2CCNC2=S)C(=O)N1 (stereo not drawn) | > 100 µM | > 100 µM | > 100 µM | > 100 µM | > 100 µM | > 100 µM | > 100 µM | > 100 µM | > 100 µM | > 100 µM | > 100 µM | > 100 µM | > 100 µM | > 100 µM | –
CCOc1cc(-c2nc3ccccn3c2/N=C/c2cc([N+](=O)[O-])cc([N+](=O)[O-])c2O)ccc1O | > 100 µM | > 100 µM | > 100 µM | > 100 µM | > 100 µM | > 100 µM | > 100 µM | > 100 µM | > 100 µM | > 100 µM | > 100 µM | > 100 µM | > 100 µM | > 100 µM | –
O=C1NCN(c2ccccc2)C12CCN(CCc1ccc3[nH]c(=S)[nH]c3c1)CC2 | > 100 µM | > 100 µM | > 100 µM | > 100 µM | 93.7 µM | > 100 µM | > 100 µM | > 100 µM | 58.4 µM | – | 25.8 µM | 41 µM | 30.8 µM | > 100 µM | –
CO[C@H]1[C@@H](O)[C@@H](C)O[C@@H](O[C@H]2CC[C@@]3(C)[C@H](CC[C@@H]4[C@@H]3CC[C@]3(C)[C@@H](C5=CC(=O)OC5)CC[C@]43O)C2)[C@@H]1O | 0.813 µM | 0.00487 µM | 0.0119 µM | 0.00943 µM | 0.0685 µM | 0.0848 µM | 0.00675 µM | 0.013 µM | 0.0247 µM | 0.0271 µM | 2.51 µM | 0.0538 µM | 0.00902 µM | 0.0194 µM | < 0.0025 µM
O=C1CSC(/C(=C/c2ccccc2)c2nc3ccccc3[nH]2)=N1 | > 100 µM | > 100 µM | > 100 µM | > 100 µM | > 100 µM | > 100 µM | 92.7 µM | – | 74.4 µM | 50.7 µM | > 100 µM | > 100 µM | > 100 µM | > 100 µM | –
C[C@]12CCC3c4ccc(O)cc4CC[C@H]3C1CC(=O)N(N)C2=O (stereo partly drawn) | > 100 µM | > 100 µM | > 100 µM | > 100 µM | > 100 µM | > 100 µM | > 100 µM | > 100 µM | > 100 µM | > 100 µM | > 100 µM | – | > 100 µM | > 100 µM | –
COC(=O)c1ccccc1/C=C1/Cc2cccc(C)c2C1=O | > 100 µM | > 100 µM | > 100 µM | > 100 µM | > 100 µM | > 100 µM | > 100 µM | > 100 µM | > 100 µM | > 100 µM | > 100 µM | – | > 100 µM | > 100 µM | –
CC1CC(=O)Nc2cc(Cl)ccc2N1C(=O)C1CC1 (stereo not drawn) | > 100 µM | > 100 µM | > 100 µM | > 100 µM | > 100 µM | > 100 µM | > 100 µM | > 100 µM | > 100 µM | – | > 100 µM | > 100 µM | > 100 µM | > 100 µM | –
